Assay [1] can be described thus: Inhibition of recombinant Plasmodium vivax HGXPRT expressed in Escherichia coli by spectrophotometric analysis.
A short description of assay [2]: Inhibition of recombinant Plasmodium falciparum HGXPRT expressed in Escherichia coli Sphi606 cells by spectrophotometric analysis.
Assay [3] deals with T1, Hypoxanthine-guanine phosphoribosyltransferase (Homo sapiens, UniProt P00492).
T1 sequence (P00492 whole entry): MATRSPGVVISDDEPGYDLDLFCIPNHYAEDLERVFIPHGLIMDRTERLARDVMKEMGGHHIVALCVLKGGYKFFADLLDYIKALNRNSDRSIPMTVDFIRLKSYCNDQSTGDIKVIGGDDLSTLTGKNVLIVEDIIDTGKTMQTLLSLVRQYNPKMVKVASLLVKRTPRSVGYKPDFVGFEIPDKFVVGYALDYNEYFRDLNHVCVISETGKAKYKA
Description: Inhibition of recombinant human HGPRT expressed in Escherichia coli Sphi606 cells by spectrophotometric analysis.

The subject of assay [4] is Human immunodeficiency virus. Description: Antiviral activity against HIV. The format is functional, organism-based.
A further assay concerns Hepatitis C virus. Description: Antiviral activity against HCV. The format is functional, organism-based. Conditions: Hepacivirus hominis.
For another assay, the system named is Bordetella pertussis. Description: Effect on Bordetella pertussis adenylyl cyclase.
The subject of a further assay is Maize streak virus. In words: Antiviral activity against MSV. The assay is classed as functional.

The structures appear in SMILES notation. Activity calls are given as the source filed them. The rule behind the calls is not given here.

By Ki is commonly meant the equilibrium dissociation constant of an inhibitor or competing ligand from its target.

For the compound `O=c1[nH]cnc2c1ncn2C[C@@H](CF)OCP(=O)(O)O`, the results for the Ki in assay [1], in assay [2] and in assay [3] were no less than 250 µM, 13 µM and no less than 250 µM, respectively.

Regarding `Nc1nc(N)c2ncn(CC(CF)OCCP(=O)(O)O)c2n1` (stereo unspecified), the result (in assay [4]; with Hepatitis C virus; in the assay with Bordetella pertussis; in the assay on Maize streak virus) was inactive.

As to `O=c1[nH]cnc2c1ncn2C[C@H](CF)OCP(=O)(O)O`, the Ki in assay [1] was no less than 200 µM; in assay [2] it was 63 µM; in assay [3], no less than 200 µM.

Consider `Nc1nc(NC2CC2)c2ncn(CC(CF)OCCP(=O)(O)O)c2n1` (stereo unspecified), for which the result (in assay [4]; in the assay with Hepatitis C virus; in the assay on Bordetella pertussis; with Maize streak virus) was inactive.

For the compound `Nc1nc2c(ncn2CC(CF)OCCP(=O)(O)O)c(=O)[nH]1` (racemic), the Ki came to 7 µM in assay [1], 1 µM in assay [2] and 3.7 µM in assay [3]. Further, the outcome (in assay [4]; in the assay with Hepatitis C virus; with Bordetella pertussis; in the assay with Maize streak virus) was inactive.

For the compound `Nc1nc(O)c2ncn(C[C@H](CF)OCP(=O)(O)O)c2n1`, the Ki in assay [1], in assay [2] and in assay [3] was no less than 300 µM each time.

For `Nc1nc2c(ncn2C[C@H](CF)OCCP(=O)(O)O)c(=O)[nH]1`, the Ki in assay [1] was determined as 29 µM; in assay [2] it was 1 µM; in assay [3] it was 4.7 µM. Also, the outcome (in assay [4]; with Hepatitis C virus; in the assay with Bordetella pertussis; in the assay on Maize streak virus) was inactive.

For `Nc1nc(O)c2ncn(C[C@@H](CF)OCP(=O)(O)O)c2n1`, the Ki in assay [1], in assay [2] and in assay [3] was no less than 250 µM each time.

For the compound `Nc1ncnc2c1ncn2CC(CF)OCCP(=O)(O)O` (stereo unspecified), the result (in assay [4]; in the assay on Hepatitis C virus; in the assay with Bordetella pertussis; with Maize streak virus) was inactive.

In the case of `O=c1[nH]cnc2c1ncn2C[C@@H](CF)OCCP(=O)(O)O`, the results for the inhibition constant (Ki) in assay [1], in assay [2] and in assay [3] were no less than 300 µM, no less than 300 µM and 1.6 µM, respectively. The result (in assay [4]; in the assay on Hepatitis C virus; in the assay with Bordetella pertussis; in the assay with Maize streak virus) was inactive.

For the compound `Nc1nc2c(ncn2C[C@@H](CF)OCCP(=O)(O)O)c(=O)[nH]1`, the inhibitory constant (Ki) was found to be 3.4 µM in assay [1], 1.2 µM in assay [2] and 0.1 µM in assay [3]. Besides, the outcome (in assay [4]; in the assay with Hepatitis C virus; in the assay on Bordetella pertussis; in the assay on Maize streak virus) was inactive.

On to `O=c1[nH]cnc2c1ncn2CC(CF)OCCP(=O)(O)O` (racemic), for which the values for the Ki in assay [1], in assay [2] and in assay [3] were no less than 100 µM, no less than 200 µM and 5.4 µM, respectively. Further, the outcome (in assay [4]; with Hepatitis C virus; in the assay on Bordetella pertussis; in the assay on Maize streak virus) was inactive.

Take `O=c1[nH]cnc2c1ncn2C[C@H](CF)OCCP(=O)(O)O`: the inhibition constant Ki in assay [1], in assay [2] and in assay [3] was no less than 200 µM throughout. Also, the outcome (in assay [4]; in the assay on Hepatitis C virus; in the assay with Bordetella pertussis; in the assay with Maize streak virus) was inactive.

(Values after ChEMBL document CHEMBL2417370, “The effect of novel [3-fluoro-(2-phosphonoethoxy)propyl]purines on the inhibition of Plasmodium falciparum, Plasmodium vivax and human hypoxanthine-guanine-(xanthine) phosphoribosyltransferases” (Eur J Med Chem, 2013).)
